Test results as given in patent US20210393633A1, “INHIBITORS OF HUMAN IMMUNODEFICIENCY VIRUS REPLICATION” (ViiV HEALTHCARE UK (NO.5) LIMITED, priority 2018, published 2021).

How the values were obtained:
[1] = system: recombinant NL4-3 virus (nef section replaced with Renilla luciferase gene) in MT-2 cells; test: HIV cell culture assay (antiviral activity, luciferase readout in infected MT-2 cells); format: cell-based; conditions: NL43
Method: HIV cell culture assay—MT-2 cells, 293T cells and the proviral DNA clone of NL4-3 virus were obtained from the NIH AIDS Research and Reference Reagent Program. MT-2 cells were propagated in RPMI 1640 media supplemented with 10% heat inactivated fetal bovine serum (FBS), […]. The 293T cells were propagated in DMEM media supplemented with 10% heat inactivated FBS, […]. A recombinant NL4-3 proviral clone, in which a section of the nef gene was replaced with the Renilla luciferase gene, was used to make the reference virus used in these studies. The recombinant virus was prepared through transfection of the recombinant NL4-3 proviral clone into 293T cells using Transit-293 Transfection Reagent from Minis Bio LLC (Madison, Wis.). Supernatent was harvested after 2-3 days and the amount of virus present was titered in MT-2 cells using luciferase enzyme activity as a marker by measuring luciferase enzyme activity. Luciferase was quantitated using the EnduRen Live Cell Substrate from Promega (Madison, Wis.). Antiviral activities of compounds toward the recombinant virus were quantified by measuring luciferase activity in MT-2 cells infected for 4-5 days with the recombinant virus in the presence of serial dilutions of the compound.
The 50% effective concentration (EC5o) was calculated by using the exponential form of the median effect equation where (Fa)=1/[1+(ED50/drug conc.)m] (Johnson Va., Byington R T. Infectivity Assay. In Techniques in HIV Research. ed. Aldovini A, Walker B D. 71-76. New York: Stockton Press.1990). The 50% inhibitory concentration (EC50) was calculated by using the exponential form of the median effect equation where percent inhibition=1/[1 +(EC50/drug concentration)m], where m is a parameter that reflects the slope of the concentration-response curve.

[2] = Compound cytotoxicity, XTT-based colorimetric assay; format: cell-based; conditions: human; uninfected MT2 cells, day 4, XTT
Method: Compound cytotoxicity and the corresponding CC50 values were determined using the same protocol as described in the antiviral assay except that uninfected cells were used. Cytotoxicity was assessed on day 4 in uninfected MT2 cells by using a XTT (2,3-bis[2-Methoxy-4-nitro-5-sulfophenyl]-2H-tetrazolium-5-carboxyanilide inner salt)-based colorimetric assay (Sigma-Aldrich, St Louis, Mo).

| Structure (SMILES) | EC50 [1] [nM] | CC50 at 4 day [2] [nM] |
| --- | --- | --- |
| CS(=O)(=O)Nc1nn(CC(F)F)c2c(-n3c([C@H](Cc4cc(F)cc(F)c4)NC(=O)Cn4nc(C(F)F)c5c4C(F)(F)[C@@H]4C[C@H]54)nc4cc(C5=CCOCC5)ccc4c3=O)ccc(Cl)c12 (atropisomer, axis not shown; (P)) [Example 15, N—((S)-1-((3P)-3-(4-chloro-1-(2,2-difluoroethyl)-3-(methylsulfonamido)-1H-indazol-7-yl)-7-(3,6-dihydro-2H-pyran-4-yl)-4-oxo-3,4-dihydroquinazolin-2-yl)-2-(3,5-difluorophenyl)ethyl)-2-((3bS,4aR)-3-(difluoromethyl)-5,5-difluoro-3b,4,4a,5-tetrahydro-1H-cyclopropal3,41cyclopenta[1,2-c]pyrazol-1-yl)acetamide] | 0.094 | > 500 |
| CS(=O)(=O)Nc1nn(CC(F)F)c2c(-n3c([C@H](Cc4cc(F)cc(F)c4)NC(=O)Cn4nc(C(F)F)c5c4C(F)(F)[C@@H]4C[C@H]54)nc4cc(C5CCOCC5)ccc4c3=O)ccc(Cl)c12 (atropisomer, axis not shown; (P)) [Example 17, N—((S)-1-((3P)-3-(4-chloro-1-(2,2-difluoroethyl)-3-(methylsulfonamido)-1H-indazol-7-yl)-4-oxo-7-(tetrahydro-2H-pyran-4-yl)-3,4-dihydroquinazolin-2-yl)-2-(3,5-difluorophenyl)ethyl)-2-((3bS,4aR)-3-(difluoromethyl)-5,5-difluoro-3b,4,4a,5-tetrahydro-1H-cyclopropal3,41cyclopenta[1,2-c]pyrazol-1-yl)acetamide] | 0.06 | > 500 |
| O=C(Cn1nc(C(F)F)c2c1C(F)(F)[C@@H]1C[C@H]21)N[C@@H](Cc1cc(F)cc(F)c1)c1nc2cc(C3CCOCC3)ccc2c(=O)n1-c1ccc(Cl)c2c(NS(=O)(=O)C3CC3)nn(CC(F)F)c12 (atropisomer, axis not shown; (P)) [Example 18] | 0.084 | > 500 |
| C[C@@H]1CC(c2ccc3c(=O)n(-c4ccc(Cl)c5c(NS(C)(=O)=O)nn(C)c45)c([C@H](Cc4cc(F)cc(F)c4)NC(=O)Cn4nc(C(F)F)c5c4C(F)(F)[C@@H]4C[C@H]54)nc3c2)=C[C@H](C)O1 (atropisomer, axis not shown; (P)) [Example 19, N—((S)-1-((3P)-3-(4-chloro-1-methyl-3-(methylsulfonamido)-1H-indazol-7-yl)-7-((2R,6S)-2,6-dimethyl-3,6-dihydro-2H-pyran-4-yl)-4-oxo-3,4-dihydroquinazolin-2-yl)-2-(3,5-difluorophenyl)ethyl)-2-((3bS,4aR)-3-(difluoromethyl)-5,5-difluoro-3b,4,4a,5-tetrahydro-1H-cyclopropa[3,4]cyclopenta[1,2-c]pyrazol-1-yl)acetamide] | 0.08 | > 500 |
| C[C@@H]1CC(c2ccc3c(=O)n(-c4ccc(Cl)c5c(NS(C)(=O)=O)nn(CC(F)F)c45)c([C@H](Cc4cc(F)cc(F)c4)NC(=O)Cn4nc(C(F)F)c5c4C(F)(F)[C@@H]4C[C@H]54)nc3c2)=C[C@H](C)O1 (atropisomer, axis not shown; (P)) [Example 20, N—((S)-1-((3P)-3-(4-chloro-1-(2,2-difluoroethyl)-3-(methylsulfonamido)-1H-indazol-7-yl)-7-((2R,6S)-2,6-dimethyl-3,6-dihydro-2H-pyran-4-yl)-4-oxo-3,4-dihydroquinazolin-2-yl)-2-(3,5-difluorophenyl)ethyl)-2-((3bS,4aR)-3-(difluoromethyl)-5,5-difluoro-3b,4,4a,5-tetrahydro-1H-cyclopropa[3,4]cyclopenta[1,2-c]pyrazol-1-yl)acetamide] | 0.13 | > 500 |
| C[C@@H]1CC(c2ccc3c(=O)n(-c4ccc(Cl)c5c(NS(=O)(=O)C6CC6)nn(CC(F)F)c45)c([C@H](Cc4cc(F)cc(F)c4)NC(=O)Cn4nc(C(F)F)c5c4C(F)(F)[C@@H]4C[C@H]54)nc3c2)=C[C@H](C)O1 (atropisomer, axis not shown; (P)) [Example 21, N—((S)-1-((3P)-3-(4-chloro-3-(cyclopropanesulfonamido)-1-(2,2-difluoroethyl)-1H-indazol-7-yl)-7-((2R,6S)-2,6-dimethyl-3,6-dihydro-2H-pyran-4-yl)-4-oxo-3,4-dihydroquinazolin-2-yl)-2-(3,5-difluorophenyl)ethyl)-2-((3bS,4aR)-3-(difluoromethyl)-5,5-difluoro-3b,4,4a,5-tetrahydro-1H-cyclopropa[3,4]cyclopenta[1,2-c]pyrazol-1-yl)acetamide] | 0.14 | > 500 |
| COC(C)(C)CCc1ccc2c(=O)n(-c3ccc(Cl)c4c(NS(C)(=O)=O)nn(C)c34)c([C@H](Cc3cc(F)cc(F)c3)NC(=O)Cn3nc(C(F)F)c4c3C(F)(F)[C@@H]3C[C@H]43)nc2c1 (atropisomer, axis not shown; (P)) [Example 24, N—((S)-1-((3P)-3-(4-chloro-1-methyl-3-(methylsulfonamido)-1H-indazol-7-yl)-7-(3-methoxy-3-methylbutyl)-4-oxo-3,4-dihydroquinazolin-2-yl)-2-(3,5-difluorophenyl)ethyl)-2-((3bS,4aR)-3-(difluoromethyl)-5,5-difluoro-3b,4,4a,5-tetrahydro-1H-cyclopropa[3,4]cyclopenta[1,2-c]pyrazol-1-yl)acetamide] | 0.039 | > 500 |
| Cn1nc(NS(C)(=O)=O)c2c(Cl)ccc(-n3c([C@H](Cc4cc(F)cc(F)c4)NC(=O)Cn4nc(C(F)F)c5c4C(F)(F)[C@@H]4C[C@H]54)nc4cc(C(F)(F)C5CCC5)ccc4c3=O)c21 (atropisomer, axis not shown; (P)) [Example 25, N—((S)-1-((3P)-3-(4-chloro-1-methyl-3-(methylsulfonamido)-1H-indazol-7-yl)-7-(cyclobutyldifluoromethyl)-4-oxo-3,4-dihydroquinazolin-2-yl)-2-(3,5-difluorophenyl)ethyl)-2-((3bS,4aR)-3-(difluoromethyl)-5,5-difluoro-3b,4,4a,5-tetrahydro-1H-cyclopropa[3,4]cyclopenta[1,2-c]pyrazol-1-yl)acetamide] | 0.75 | > 500 |
| Cn1nc(NS(C)(=O)=O)c2c(Cl)ccc(-n3c([C@H](Cc4cc(F)cc(F)c4)NC(=O)Cn4nc(C(F)F)c5c4C(F)(F)[C@@H]4C[C@H]54)nc4cc(C5(C(F)(F)F)CC5)ccc4c3=O)c21 (atropisomer, axis not shown; (P)) [Example 27] | 0.13 | > 500 |
| Cn1nc(NS(C)(=O)=O)c2c(Cl)ccc(-n3c([C@H](Cc4cc(F)cc(F)c4)NC(=O)Cn4nc(C(F)F)c5c4C(F)(F)[C@@H]4C[C@H]54)nc4cc(CCC(=O)N5CCOCC5)ccc4c3=O)c21 [Example 1, N—((S)-1-((3P)-3-(4-chloro-1-methyl-3-(methylsulfonamido)-1H-indazol-7-yl)-7-(3-morpholino-3-oxopropyl)-4-oxo-3,4-dihydroquinazolin-2-yl)-2-(3,5-difluorophenyl)ethyl)-2-((3bS,4aR)-3-(difluoromethyl)-5,5-difluoro-3b,4,4a,5-tetrahydro-1H-cyclopropa[3,4]cyclopenta[1,2-c]pyrazol-1-yl)acetamide] | 0.096 | > 1000 |
| CC1NCCNC1c1ccc2c(=O)n(-c3ccc(Cl)c4c(NS(C)(=O)=O)nn(C)c34)c([C@H](Cc3cc(F)cc(F)c3)NC(=O)Cn3nc(C(F)F)c4c3C(F)(F)[C@@H]3C[C@H]43)nc2c1 (stereo partly drawn) [Example 10, N-((1S)-1-((3P)-3-(4-chloro-1-methyl-3-(methylsulfonamido)-1H-indazol-7-yl)-7-(3-methylpiperazin-2-yl)-4-oxo-3,4-dihydroquinazolin-2-yl)-2-(3,5-difluorophenyl)ethyl)-2-((3bS,4aR)-3-(difluoromethyl)-5,5-difluoro-3b,4,4a,5-tetrahydro-1H-cyclopropa[3,4]cyclopenta[1,2-c]pyrazol-1-yl)acetamide] | 0.933 | > 1000 |
| O=C(Cn1nc(C(F)F)c2c1C(F)(F)[C@@H]1C[C@H]21)N[C@@H](Cc1cc(F)cc(F)c1)c1nc2cc(C3=CCOCC3)ccc2c(=O)n1-c1ccc(Cl)c2c(NS(=O)(=O)C3CC3)nn(CC(F)F)c12 [Example 16, N—((S)-1-((3P)-3-(4-chloro-3-(cyclopropanesulfonamido)-1-(2,2-difluoroethyl)-1H-indazol-7-yl)-7-(3,6-dihydro-2H-pyran-4-yl)-4-oxo-3,4-dihydroquinazolin-2-yl)-2-(3,5-difluorophenyl)ethyl)-2-((3bS,4aR)-3-(difluoromethyl)-5,5-difluoro-3b,4,4a,5-tetrahydro-1H-cyclopropa[3,4]cyclopenta[1,2-c]pyrazol-1-yl)acetamide] | 0.3 | > 500 |
